Patent US20240002380A1, “REV-ERB AGONISTS” (Saint Louis University, priority 2020, published 2024)
Read-outs that look alike come from different tables or passages of the source.

Legend:
[1] = molecular target: REV-ERBβ (Homo sapiens (Human), UniProt Q14995); assay: FRET assay for REV-ERB ligands (REV-ERBβ LBD / NCoR ID2 peptide interaction); assay type: biochemical; conditions: TR-FRET, His-tagged REV-ERBβ LBD, fluorescein NCoR ID2 peptide; read-out: RevErbβ Inhibition IC50
Experimental: (§1) Example A: FRET Assay for REV-ERB Ligands
(§2) The capacity for compounds to function as ligands for either REV-ERBα or REV-ERBβ was assessed using a fluorescent resonance energy transfer assay that detects the interaction between these receptors and the Nuclear Receptor Corepressor (NCoR) protein (the ID2 corepressor interaction domain peptides is used). This interaction is known to be ligand dependent and thus this assay that can detect an alteration of the affinity of these two proteins is able to detect ligands. The His-tagged ligand binding domain (LBD) of either REV-ERBα or REV-ERBβ and fluorescein labeled NCoR ID2 peptide (Life Technologies #PV4624) is used in these assays. The His-tagged LBDs were expressed in E. coli (amino acids 281-614 REV-ERBα and 381-579 REV-ERBβ) and labeled with a Terbium (Tb) labeled anti-His antibody (Life Technologies #PV5895). The assay buffer was PBS (phosphate buffered saline) with 5 mM DTT (dithiothreitol). The final concentration of various reagents in the assay are: REV-ERB LBD (either isoform) [5 nM], Fluorescein labeled NCoR ID2 peptide [250 nM], Tb labeled anti-his antibody [10 nM], dimethylsulfoxide [1%] and test compound [varying concentrations]. The assay was performed in Corning NBS black 384-well plates in a total volume of 20 μl. The assay plate was incubated for 1 hour at room temperature protected from light and then TR-FRET was assessed on a Biotek plate reader with the following excitation/emission pairs (340 nm/495 nm and 340 nm/520 nm. The 520 nm/495 nm emission signal ratio was used as an indicator of the degree of interaction between the LBD and NCoR peptide and EC50's were calculated using GraphPad Prizm software.

[2] = molecular target: REV-ERBα (Homo sapiens (Human), UniProt P20393); assay: FRET assay for REV-ERB ligands (REV-ERBα LBD / NCoR ID2 peptide interaction); assay type: biochemical; conditions: TR-FRET, His-tagged REV-ERBα LBD, fluorescein NCoR ID2 peptide; read-out: RevErbα Inhibition IC50
REV-ERBα, sequence (P20393 281-614): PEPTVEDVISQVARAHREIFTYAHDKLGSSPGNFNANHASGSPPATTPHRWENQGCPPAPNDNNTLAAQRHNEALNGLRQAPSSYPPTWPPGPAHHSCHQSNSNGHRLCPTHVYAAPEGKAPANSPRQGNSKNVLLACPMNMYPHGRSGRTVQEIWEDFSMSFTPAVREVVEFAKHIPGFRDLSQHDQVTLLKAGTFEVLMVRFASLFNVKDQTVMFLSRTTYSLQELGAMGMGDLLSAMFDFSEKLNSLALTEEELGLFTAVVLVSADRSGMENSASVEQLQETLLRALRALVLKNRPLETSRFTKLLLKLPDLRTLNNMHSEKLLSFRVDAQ
Experimental: as §1, §2

[3] = Plasma pharmacokinetics after intraperitoneal injection in mice; assay type: in vivo; conditions: mouse, 5 mg/kg IP; for Vd/F: read-out: Vz/F
Experimental: Example B: Pharmacokinetics of Selected Compounds
Mice were injected intraperitoneally with (5 mg/kg) of the compound of Example 71 or Example 78 and plasma samples were taken at intervals of […], 0.25 hr, 0.5 hr. 1.0 hr, 3.0 hr, and 6.0 hr post-administration in order to analyze the pharmacokinetic profile of these compounds. The mean plasma content for male and for female mice at these time points post-injection are shown for Example 71 in FIG. 1A and Table 3, and for Example 78, in FIG. 1B and Table 4.

[4] = test system: senescence accelerated mouse P8 (SAMP8) mouse model; conditions: SAMP8 mice, AD-like pathology; cited from earlier work

REV-ERBβ, sequence (Q14995 381-579): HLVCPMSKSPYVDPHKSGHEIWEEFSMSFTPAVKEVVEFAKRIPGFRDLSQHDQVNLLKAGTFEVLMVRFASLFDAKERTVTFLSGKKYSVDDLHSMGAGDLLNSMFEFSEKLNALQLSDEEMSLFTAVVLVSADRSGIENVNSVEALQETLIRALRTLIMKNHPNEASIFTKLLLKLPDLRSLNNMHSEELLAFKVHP

Compound	IC50 [1] [nM]	IC50 [2] [nM]	other results
c1ccc(-c2cccc(Oc3ccc4ccncc4n3)c2)cc1 [Example 51, 2-([1,1′-biphenyl]-3-yloxy)-1,7-naphthyridine]	> 1000	–	–
Cn1cnc2ccc(Oc3ccccc3-c3cccnc3)nc21 [Example 6, 3-methyl-5-(2-(pyridin-3-yl)phenoxy)-3H-imidazo[4,5-b]pyridine]	–	≤ 250	–
c1ccc2cc(Oc3ccc4ccncc4n3)ccc2c1 [Example 70, 2-(naphthalen-2-yloxy)-1,7-naphthyridine]	–	≤ 250	–
Cn1ncc2cnc(Oc3ccccc3-c3cccnc3)nc21 [Example 10, 1-methyl-6-(2-(pyridin-3-yl)phenoxy)-1H-pyrazolo[3,4-d]pyrimidine]	≤ 250	≤ 250	–
COc1ccc2c(C(F)(F)F)cc(SCC(=O)NCCc3ccc(F)cc3)nc2c1 [Example 62, N-(4-fluorophenethyl)-2-((7-methoxy-4-(trifluoromethyl)quinolin-2-yl)thio)acetamide]	–	≤ 250	–
c1ccc2c(Oc3ccc4cnccc4n3)cccc2c1 [Example 56, 2-(naphthalen-1-yloxy)-1,6-naphthyridine]	> 1000	> 1000	–
FC(F)(F)c1cc(Oc2ccccc2-c2ccccc2)nc2ccccc12 [Example 34, 2-([1,1′-biphenyl]-2-yloxy)-4-(trifluoromethyl)quinoline]	> 1000	–	–
FC(F)(F)c1ccccc1Oc1ccc2ccncc2n1 [Example 44, 2-(2-(trifluoromethyl)phenoxy)-1,7-naphthyridine]	≤ 250	–	–
c1ccc(C2CCCCC2)c(Oc2ccc3cnccc3n2)c1 [Example 49, 2-(2-cyclohexylphenoxy)-1,6-naphthyridine]	–	250 to 1000	–
Cn1ncc2ccc(Oc3ccccc3-c3cccc(F)c3)nc21 [Example 14, 6-(3′-fluorobiphenyl-2-yloxy)-1-methyl-1H-pyrazolo[3,4-b]pyridine]	–	250 to 1000	–
c1ccc(C2CCCCC2)c(Oc2ccc3ccncc3n2)c1 [Example 48, 2-(2-cyclohexylphenoxy)-1,7-naphthyridine]	–	≤ 250	–
Cn1cnc2ccc(Oc3ccccc3-c3cccc(F)c3)nc21 [Example 5, 5-(3′-fluorobiphenyl-2-yloxy)-3-methyl-3H-imidazo[4,5-b]pyridine]	250 to 1000	≤ 250	–
Cc1cccc(-c2ccccc2Oc2ccc3ncn(C)c3n2)c1 [Example 4, 3-methyl-5-(3′-methylbiphenyl-2-yloxy)-3H-imidazo[4,5-b]pyridine]	≤ 250	–	–
CNc1cccc(-c2ccccc2Oc2ncc3ccn(C)c3n2)c1 [Example 17, N-methyl-2′-(7-methyl-7H-pyrrolo[2,3-d]pyrimidin-2-yloxy)biphenyl-3-amine]	–	≤ 250	–
c1ccc(-c2ccccc2Oc2ccc3cnccc3n2)nc1 [Example 45, 2-(2-(pyridin-2-yl)phenoxy)-1,6-naphthyridine]	≤ 250	> 1000	–
c1ccc(-c2ccccc2Oc2ccc3cnccc3n2)cc1 [Example 24, 2-(biphenyl-2-yloxy)-1,6-naphthyridine]	–	≤ 250	–
Cn1cnc2ccc(Oc3ccccc3-c3ccccc3)nc21 [Example 3, 5-([1,1′-biphenyl]-2-yloxy)-3-methyl-3H-imidazo[4,5-b]pyridine]	≤ 250	250 to 1000	–
c1cc2ccc(OC3CCCCC3)nc2cn1 [Example 57, 2-(cyclohexyloxy)-1,7-naphthyridine]	–	> 1000	–
COc1ccc(-c2ccc(C(F)(F)F)cc2Oc2ccc3cnccc3n2)cc1 [Example 78, 2-((4′-methoxy-4-(trifluoromethyl)-[1,1′-biphenyl]-2-yl)oxy)-1,6-naphthyridine]	–	–	AUC(0-t) ([3]; Table 4, female mice): 137 ng·h/mL; Cmax ([3]; Table 4, female mice): 269 ng/mL; Tmax ([3]; Table 4, female mice): 15 min; AUC(0-t) ([3]; Table 4, male mice): 343 ng·h/mL; CL/F ([3]; Table 4, male mice): 238 mL/min/kg; Cmax ([3]; Table 4, male mice): 330 ng/mL; Tmax ([3]; Table 4, male mice): 15 min; half-life ([3]; Table 4, male mice): 33 min; Vd/F ([3]; Table 4, male mice): 11.3 L/kg
Cc1nn(C)c2cnc(Oc3ccccc3-c3ccccc3)nc12 [Example 21, 5-([1,1′-biphenyl]-2-yloxy)-1,3-dimethyl-1H-pyrazolo[4,3-d]pyrimidine]	–	> 1000	–
Cc1cc(C)c(Oc2ccc3cnccc3n2)c(-c2ccccc2)c1 [Example 71, 2-((3,5-dimethyl-[1,1′-biphenyl]-2-yl)oxy)-1,6-naphthyridine]	–	–	AUC(0-inf) ([3]; female mice): 172 ng·h/mL; AUC(0-t) ([3]; female mice): 169 ng·h/mL; CL/F ([3]; female mice): 484 mL/min/kg; Cmax ([3]; female mice): 345 ng/mL; Tmax ([3]; female mice): 4.98 min; half-life ([3]; female mice): 31.2 min; Vd/F ([3]; female mice): 21.9 L/kg; AUC(0-inf) ([3]; male mice): 225 ng·h/mL; AUC(0-t) ([3]; male mice): 222 ng·h/mL; CL/F ([3]; male mice): 371 mL/min/kg; Cmax ([3]; male mice): 317 ng/mL; Tmax ([3]; male mice): 4.98 min; half-life ([3]; male mice): 28.2 min; Vd/F ([3]; male mice): 15.2 L/kg
c1ccc2c(Oc3ccc4ccncc4n3)cccc2c1 [Example 54, 2-(naphthalen-1-yloxy)-1,7-naphthyridine]	–	≤ 250	–
COc1ccc2c(C(F)(F)F)cc(Oc3ccccc3-c3ccccn3)nc2c1 [Example 36, 7-methoxy-2-(2-(pyridin-2-yl)phenoxy)-4-(trifluoromethyl)quinoline]	–	≤ 250	–
c1ccc(-c2ccccc2Oc2ccc3ncccc3n2)cc1 [Example 68, 2-([1,1′-biphenyl]-2-yloxy)-1,5-naphthyridine]	> 1000	250 to 1000	–
c1ccc(-c2ccccc2Oc2ncc3cnccc3n2)cc1 [Example 22, 2-(biphenyl-2-yloxy)pyrido[4,3-d]pyrimidine]	–	≤ 250	–
CCOC(=O)N1CCC(CN(Cc2ccc(Cl)cc2)Cc2ccc([N+](=O)[O-])s2)C1 (stereo not shown) [SR9009]	–	–	reversing the cognitive decline [4]: effective in reversing the cognitive decline
Cc1cccc(-c2ccccc2Oc2ccc3cnn(C)c3n2)c1 [Example 13, 1-methyl-6-(3′-methylbiphenyl-2-yloxy)-1H-pyrazolo[3,4-b]pyridine]	–	> 1000	–
FC(F)(F)c1ccccc1Oc1ccc2cnccc2n1 [Example 46, 2-(2-(trifluoromethyl)phenoxy)-1,6-naphthyridine]	> 1000	250 to 1000	–
c1ccc(-c2ccccc2Oc2ccc3ccncc3n2)cc1 [Example 59, 2-([1,1′-biphenyl]-2-yloxy)-1,7-naphthyridine]	≤ 250	≤ 250	–
